Laboratory results reported in patent US9492493B2, “Softgel of NLKJ for treating prostate diseases” (priority 2003, dated 2016).

Tests used:
[1] = tested on: Human prostate cancer (PC-3M); assay: Inhibition of NLKJ softgels on the growth of human prostate cancer in an animal model (Experiment Example 1); type: in vivo; details: 100 mg/kg, ip × 3 (d 1, 5, 9); 21th day after inoculation
Experimental: Inhibition of NLKJ Softgels on the Growth of Human Prostate Cancer in an Animal Model
NLKJ softgels (NLKJ for injection), Batch No. 20010412;
Kanglaite Injection (Product of Zhejiang Kanglaite Pharmaceutical Co. LTD, containing NLKJ 10 g/100 ml), Batch No. 0011281-1.
Grafting Tumor: Human prostate cancer (PC-3M), subcultured by Pharmacological Department, Shanghai Institute of Pharmaceutical Industry.
1) Control Group (Normal saline);
2) NLKJ softgel (5 ml/kg, p.o.×10 d);
3) NLKJ softgel (10 ml/kg, p.o.×10 d);
4) Kanglaite Injection (25 ml/kg, i.v.×10 d);
5) Cyclophamide (CTX) (100 mg/kg, ip.×3 (d1, d5, d9)).
(§1) The treatment started from the second day after inoculation. […] The weights of tumors were compared among the groups. The result was judged based on the formula: […]
IR: Inhibition Rate of Tumor; Xcon: Average weight of tumors of the control group; Xtreat: Average weight of tumors of the treatment group.

[2] = Body weight of tumor-bearing nude mice (Experiment Example 1); type: in vivo, BALB/C nude mice; details: 100 mg/kg, ip × 3 (d 1, 5, 9)
Text: as §1

[3] = tested on: Human prostate cancer (PC-3M); assay: Inhibition of NLKJ softgels in combination with Lupron on the growth of human prostate cancer in animal models (Experiment Example 2); type: in vivo; details: sc × 1, 21th day after inoculation
Text: Inhibition of NLKJ Softgels in Combination with Lupron on the Growth of Human Prostate Cancer in Animal Models […] for injection), Batch No. 011209; Lupron (Takeda Chemical Industries, Ltd., Osaka, Japan 541), Batch No. 47978 AP. […] Grafting Tumor: Human prostate cancer (PC-3M), subcultured by Pharmacological Department, Shanghai Institute of Pharmaceutical Industry. […] The weights of tumors were compared among the groups.

SMILES | Inhibition Rate(%) [1] [%] | Tumor Weight(g) (x ± SD) [1] | Body weight (g) Beg ([2]; beginning) [g] | Body weight (g) End ([2]; end) [g] | Inhibition Rate(%) ([3]; 0.75 mg/kg) | Tumor Weight(g) (x ± SD) ([3]; 0.75 mg/kg) | Inhibition Rate(%) ([3]; 1.50 mg/kg) | Tumor Weight(g) (x ± SD) ([3]; 1.50 mg/kg)
O=P1(N(CCCl)CCCl)NCCCO1 (centres unmarked) [CTX, Cyclophamide] | 92.47 | 0.12 ± 0.04 | 17.0 | 17.8 |  |  |  | 
CCNC(=O)[C@@H]1CCCN1C(=O)[C@H](CCCNC(=N)N)NC(=O)[C@H](CC(C)C)NC(=O)[C@@H](CC(C)C)NC(=O)[C@H](Cc1ccc(O)cc1)NC(=O)[C@H](CO)NC(=O)[C@H](Cc1c[nH]c2ccccc12)NC(=O)[C@H](Cc1c[nH]cn1)NC(=O)[C@@H]1CCC(=O)N1 [Lupron, leuprolide acetate] |  |  |  |  | 37.08 | 0.93 ± 0.23 | 48.31 | 0.77 ± 0.14
